Data published in ChEMBL document CHEMBL1123852, “Synthesis and structure-activity studies of corticosteroid 17-heterocyclic aromatic esters. 1. 9 alpha, 11 beta-dichloro series” (1987).

What was measured:
[1] = species: Mus musculus; experiment: Antiinflammatory potency to betamethasone 17-valerate measured in mice using 5 day Tonelli croton oil ear test.; format: functional
[2] = species: Mus musculus; experiment: Antiinflammatory potency to betamethasone 17-valerate measured in mice using 5 hr Tonelli croton oil ear test.; format: functional

Row | Structure (SMILES) | Topical potency [1] | Topical potency [2]
1 | C[C@@H]1CC2C3CCC4=CC(=O)C=C[C@]4(C)[C@@]3(Cl)C(Cl)C[C@]2(C)[C@@]1(OC(=O)c1ccco1)C(=O)CCl (some centres undefined) | 8.2 | 1.9
2 | CC(=O)OCC(=O)[C@@]1(OC(=O)c2ccco2)C(C)CC2C3C[C@H](F)C4=CC(=O)C=CC4(C)[C@@]3(Cl)C(Cl)CC21C (some centres undefined) | 1.8 | 3.3
3 | CCC(=O)OCC(=O)[C@@]1(OC(=O)c2ccco2)C(C)CC2C3CCC4=CC(=O)C=CC4(C)[C@@]3(Cl)C(Cl)CC21C (some centres undefined) | 0.9 | 1.1
4 | CC(=O)OCC(=O)[C@@]1(OC(=O)c2ccco2)[C@@H](C)CC2C3CCC4=CC(=O)C=C[C@]4(C)[C@@]3(Cl)C(Cl)C[C@@]21C (some centres undefined) | 1.7 | 1.3
5 | CC1CC2C3CCC4=CC(=O)C=CC4(C)[C@@]3(Cl)C(Cl)CC2(C)[C@@]1(OC(=O)c1ccoc1)C(=O)CO (some centres undefined) | – | 0.7
6 | COCC(=O)OCC(=O)[C@@]1(OC(=O)c2ccco2)C(C)CC2C3CCC4=CC(=O)C=CC4(C)[C@@]3(Cl)C(Cl)CC21C (some centres undefined) | 3 | 1
7 | CC(=O)OCC(=O)[C@@]1(OC(=O)c2ccc(C)s2)C(C)CC2C3CCC4=CC(=O)C=CC4(C)[C@@]3(Cl)C(Cl)CC21C (some centres undefined) | 0.56 | 1.2
8 | CC(=O)OCC(=O)[C@@]1(OC(=O)c2cccs2)C(C)CC2C3CCC4=CC(=O)C=CC4(C)[C@@]3(Cl)C(Cl)CC21C (some centres undefined) | 0.8 | 1.3
9 | C[C@H]1CC2C3CCC4=CC(=O)C=C[C@]4(C)[C@@]3(Cl)C(Cl)C[C@]2(C)[C@@]1(OC(=O)c1ccco1)C(=O)CCl (some centres undefined) | 0.8 | 1.2
10 | CC(=O)OCC(=O)[C@@]1(OC(=O)c2ccsc2)C(C)CC2C3CCC4=CC(=O)C=CC4(C)[C@@]3(Cl)C(Cl)CC21C (some centres undefined) | 3.2 | 0.9
11 | CC1CC2C3CCC4=CC(=O)C=CC4(C)[C@@]3(Cl)C(Cl)CC2(C)[C@@]1(OC(=O)c1ccco1)C(=O)CF (some centres undefined) | 4 | 1.8
12 | CC1CC2C3CCC4=CC(=O)C=CC4(C)[C@@]3(Cl)C(Cl)CC2(C)[C@@]1(OC(=O)c1cccs1)C(=O)CO (some centres undefined) | – | 0.8
13 | CC(=O)OCC(=O)[C@@]1(OC(=O)c2ccco2)[C@H](C)CC2C3CCC4=CC(=O)C=C[C@]4(C)[C@@]3(Cl)C(Cl)C[C@@]21C (some centres undefined) | 1.2 | 1.4
14 | CC(=O)OCC(=O)[C@@]1(OC(=O)c2cccn2C)C(C)CC2C3CCC4=CC(=O)C=CC4(C)[C@@]3(Cl)C(Cl)CC21C (some centres undefined) | – | 1.1
15 | CCCC(=O)OCC(=O)[C@@]1(OC(=O)c2ccco2)C(C)CC2C3CCC4=CC(=O)C=CC4(C)[C@@]3(Cl)C(Cl)CC21C (some centres undefined) | – | 1
16 | CC1CC2C3C[C@H](F)C4=CC(=O)C=CC4(C)[C@@]3(Cl)C(Cl)CC2(C)[C@@]1(OC(=O)c1ccco1)C(=O)CCl (some centres undefined) | 3 | 2.5
17 | CC1CC2C3CCC4=CC(=O)C=CC4(C)[C@@]3(Cl)C(Cl)CC2(C)[C@@]1(OC(=O)c1ccco1)C(=O)CO (some centres undefined) | – | 0.8
18 | CC(=O)OCC(=O)[C@@]1(OC(=O)c2cnc3ccccc3n2)C(C)CC2C3CCC4=CC(=O)C=CC4(C)[C@@]3(Cl)C(Cl)CC21C (some centres undefined) | – | 0.3
19 | CC(=O)OCC(=O)[C@@]1(OC(=O)c2ccoc2)C(C)CC2C3CCC4=CC(=O)C=CC4(C)[C@@]3(Cl)C(Cl)CC21C (some centres undefined) | 1.4 | 1.3
20 | CC1CC2C3CCC4=CC(=O)C=CC4(C)[C@@]3(Cl)C(Cl)CC2(C)[C@@]1(OC(=O)c1ccoc1)C(=O)CCl (some centres undefined) | 1.7 | 1
21 | CCCCC(=O)O[C@]1(C(=O)CO)[C@@H](C)C[C@H]2[C@@H]3CCC4=CC(=O)C=C[C@]4(C)[C@@]3(F)[C@@H](O)C[C@@]21C [BETAMETHASONE VALERATE] | 1 | 1
22 | CC(=O)OCC(=O)[C@@]1(OC(=O)c2ccc(Br)o2)C(C)CC2C3CCC4=CC(=O)C=CC4(C)[C@@]3(Cl)C(Cl)CC21C (some centres undefined) | – | 0.6
23 | CC1CC2C3CCC4=CC(=O)C=CC4(C)[C@@]3(Cl)C(Cl)CC2(C)[C@@]1(OC(=O)c1cccs1)C(=O)CCl (some centres undefined) | 3.3 | 0.7
